Values of other authors in patent publication US20130210767A1, “BIOCIDAL COMPOSITION AND METHOD” (Arcis Biotechnology Limited, priority 2010, published 2013).

Structure (SMILES): CCCCCCCCCCCCCCCCCC[N+](C)(C)CCC[Si](OC)(OC)OC [compound of formula (I)]
- stability in aqueous solution (aqueous solution): limited stability
- stability in the presence of methanol (in the presence of methanol): stable
